Series [1] is described as follows: Extraction of phenols from 1% aqueous solution with toluene or heptane (Examples 5E-5H).
The nature of series [2]: MIBC extraction of reactor product: partition between upper MIBC-rich organic layer and lower aqueous layer (Example 3). Here is the method:
(§1) The injector temperature was set at 250° C., and the detector temperature was set at 300° C.
Partition coefficients for the concentration by weigh in the upper MIBC-rich organic layer, vs. the lower aqueous layer, are reported in Table 2.

Series [3] in a line: Comparison of extraction solvents on simulated reaction product mixture (Examples 5A-5D). Particulars: for Kow: one part by weight, 2 weight percent each component in water, 25° C.
Description: The reaction product mixture was extracted with one part of by weight solvent, with mixing for a minimum of three minutes, followed by phase separation overnight at 25° C.
A short description of series [4]: MIBC re-extraction (step #2) of aqueous lower layer from initial MIBC extraction (Example 4). The format is physicochemical. Particulars: for Extr #2 % extract / Extr #2 K UL/LL: MIBC re-extraction (step #2); for Extr #2 LL-wt %: lower layer after MIBC re-extraction (step #2); for Extr #2 LL-wt % / Extr #2 K UL/LL: one part MIBC by weight, 25° C.; for extraction from aqueous lower layer by MIBC (in words): MIBC re-extraction, GC results.

The nature of series [5]: Toluene extraction of reactor product: partitioning between upper organic and lower aqueous phases (Example 2). Particulars: for Kow UL/LL, partition coefficients for toluene extraction: toluene extractant, stirred at 150° C. for 2 hours, upper toluene-rich phase / lower aqueous-rich phase. Here is the method: as §1
Reaction cycles entailed 1 hour at 160° C., followed by 1 hour at 190° C., followed by 3 hours at 240° C. Six cycles of wood addition were effected, which simulated the first hydrothermal reaction. This was followed by heating overnight at 270° C. under 52 bar of H2, which simulated the second hydrothermal reaction to further hydrotreat and complete conversion of various compounds in the first reaction product, which the examples may refer to as intermediates.
Stirring was then stopped, and the reactor allowed to cool. […] Catalyst was left on the reactor bottom.

Series [6] is described as follows: MIBC re-extraction (step #2) of aqueous lower layer from initial MIBC extraction (Example 4). The format is physicochemical. The conditions noted are these: for Extr #1 K UL/LL: initial (step #1) MIBC extraction; for Extr #1 LL-wt %: lower aqueous layer after initial (step #1) MIBC extraction. Here is the method:
One part of the upper organic-rich upper layer from Example 3 was removed prior to distillation, extracted with one part by weight of MIBC solvent, by shaking for 3 minutes in a vial via mechanical shaker, followed by allowing to phase separate overnight at 25° C.
Extraction efficiency as measured by the partition coefficient K increased with increasing carbon number for the light alcohol. Glycols, including ethylene glycol (EG) and propylene glycol (PG) were not extracted.

A short description of series [7]: Solubility of MPP in deionized water (Example 5E solution). The format is physicochemical. Particulars: 1 wt % solution, room temperature, judged by turbidity.
The mark [8] stands for this setting: Example 5C, MPP/MIBC extraction solvent.
[9] abbreviates: concentration by weight in upper MIBC-rich organic layer vs. lower aqueous layer.
Where [10] appears, read: Ex 5A, toluene extraction solvent.
Where [11] appears, read: Ex 5C, 1:1 MPP/MIBC extraction solvent.
The mark [12] stands for this setting: Ex 5D, meta-cresol extraction solvent.
[13] abbreviates: Example 5G, 1% solution of m-cresol extracted with toluene.
Where [14] appears, read: Example 5D, m-cresol as extraction solvent.
Where [15] appears, read: Example 5F, 1% MPP in water extracted with heptane.
Setting [16] is: Example 5B, MPP as extraction solvent.

The source of these data is patent publication US20160186068A1, “METHODS AND SYSTEMS FOR PROCESSING CELLULOSIC BIOMASS” (SHELL OIL COMPANY, priority 2014, published 2016).

Where two headings read alike, the source gives them in different places.

As to `Cc1ccccc1` [toluene], the “extraction solvent lost to the aqueous phase” value in series [1] (Example 5G, toluene extraction) worked out at 0.04 wt %. For the same molecule, the “loss of toluene extraction solvent” value in series [1] (toluene extraction, lost to the lower layer) is “less than 1%”.
On to `CCCCCCC` [heptane], for which the “extraction solvent lost to the aqueous phase” value in series [1] (Example 5F, heptane extraction) is reported as 0.07 wt %. Also, in series [1] (Example 5H, heptane extraction), the “extraction solvent lost to the aqueous layer” value is reported as 0.015%.
Consider `CC(C)CC(C)O` (centres unmarked) [MIBC, methylisobutylcarbinol], for which, in series [2], the “MIBC extraction partition coefficient” value was determined as 48.12. The “co-solvent lost to aqueous” value in series [3] (setting [8]) was 1%.
Consider `CCO` [EtOH, ethanol], for which, in series [4], the “Extr #2 % extract” value worked out at 39% and the “Extr #2 LL-wt %” value came out at 0.16 wt %.
For `Cc1cccc(C)c1O` [xylenol, 2,6-xylenol], the “MIBC extraction partition coefficient” value in series [2] (setting [9]) is given as 87.26. In addition, in series [5] (after toluene extraction, separate distillation of phases), the “collected in the upper layer (toluene phase) distillation, relative to the bottom phase distillation” value amounted to 99.5%. Further, the “Kow UL/LL, partition coefficients for toluene extraction” value in series [5] is 51.79.
On to `CC(O)CO` (centres unmarked) [PG, 1,2-propylene glycol], for which, in series [6], the “Extr #1 K UL/LL” value came out at 0.33 and the “Extr #1 LL-wt %” value worked out at 0.38 wt %. For the same molecule, in series [4], the “Extr #2 % extract” value is recorded as −30%, the “Extr #2 K UL/LL” value amounted to 0.294, the “extraction from aqueous lower layer by MIBC (in words)” value is on record as “not extracted” and the “Extr #2 LL-wt %” value is on record as 0.49 wt %. For the same molecule, in series [2], the “MIBC extraction partition coefficient” value was found to be 0.33. Moreover, in series [3] (setting [10]), the Kow is reported as 0.013. For the same molecule, the Kow in series [3] (Ex 5B, MPP extraction solvent) is 0.084. For the same molecule, the Kow in series [3] (setting [11]) is 0.042. For the same molecule, in series [3] (setting [12]), the Kow is listed as 0.197.
As for 1-propanol [PrOH], in series [4], the “Extr #2 % extract” value came to 71%, the “Extr #2 K UL/LL” value was determined as 1.429 and the “Extr #2 LL-wt %” value came out at 0.10 wt %.
`Cc1cccc(O)c1` [cresol, meta-cresol]: in series [1] (setting [13]), the “apparent partition coefficient between organic and aqueous phases” value amounted to 20.8; the “residual left in the aqueous layer” value is on record as 0.05 wt %. Besides, in series [1] (Example 5H, 1% m-cresol solution extracted with heptane), the “remained with the aqueous layer” value is 0.56 wt %. Further, in series [3] (setting [14]), the “apparent partition coefficient between oil and water” value was 39; the “lost to the aqueous layer” value was 2.7 wt %.
Take `OCCO` [EG, ethylene glycol]: in series [6], the “Extr #1 K UL/LL” value amounted to 0.37 and the “Extr #1 LL-wt %” value is on record as 0.20 wt %. For the same molecule, in series [4], the “Extr #2 % extract” value is −43%, the “Extr #2 K UL/LL” value is 0.045, the “extraction from aqueous lower layer by MIBC (in words)” value is on record as “not extracted” and the “Extr #2 LL-wt %” value is on record as 0.29 wt %. The Kow in series [3] (setting [10]) is 0.000. For the same molecule, the Kow in series [3] (Ex 5B, MPP extraction solvent) is recorded as 0.037. Besides, in series [3] (setting [11]), the Kow is 0.079. The Kow in series [3] (setting [12]) is 0.036.
On to `CO` [MeOH, Methanol], for which the “Extr #1 LL-wt %” value in series [6] was found to be 0.18 wt %. Besides, in series [4], the “Extr #2 % extract” value is given as 16% and the “Extr #2 LL-wt %” value worked out at 0.15 wt %. Moreover, the “MIBC extraction partition coefficient” value in series [2] (setting [9]) is given as 0.30.
On to `CCCc1ccc(O)c(OC)c1` [MPP, 2-methoxy-4-propylphenol], for which the “solubility in deionized water” value in series [7] is “only partial solubility”. In addition, the “MIBC extraction partition coefficient” value in series [2] (setting [9]) is >50. In addition, in series [1] (Example 5E, 1 wt % MPP in deionized water extracted with one part toluene), the “partition coefficient, weight percent in organic layer extract vs. remaining lower layer aqueous fraction” value is on record as 161.7. The “recovered by extraction from the aqueous phase” value in series [1] (Example 5E, MPP as a 1% solution, toluene as solvent) is “More than 99%”. Moreover, in series [1] (setting [15]), the apparent partition coefficient came out at 76 and the “removed down to (residual in water)” value is reported as 0.08 wt %. Also, in series [3] (setting [16]), the “amount lost to the aqueous phase” value is given as 0.15 wt %; the “apparent partition coefficient between organic and aqueous layers” value is recorded as 612. In series [3] (setting [8]), the “extractant lost to the aqueous phase” value is on record as 0.12 wt %, the “measured in the final organic extract” value is 55 wt % and the oil/water partition coefficient is on record as 462. Further, in series [5], the “Kow UL/LL, partition coefficients for toluene extraction” value came to 33.59.
